Measured values published in ChEMBL document CHEMBL1909046, “DrugMatrix in vitro pharmacology data”.

Key:
[1] = biological target: Protein phosphatase 3 catalytic subunit alpha (Homo sapiens, UniProt Q08209); set-up: species or system Escherichia coli;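 also: inhibition of calcineurin (PP2B) enzyme activity, measured with DiFMUP as the substrate; in other assays of this panel Not Active means under 50% inhibition at 10 µM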
[2] = biological target: 5-hydroxytryptamine receptor 6 (Homo sapiens, UniProt P50406); format: cell membranes, HeLa, Membrane; conditions: hela; also: in other assays of this panel Not Active means under 50% inhibition at 10 µM
Vasopressin V1a receptor = Vasopressin V1a receptor (Homo sapiens, UniProt P37288); format: cell membranes, Membrane; conditions: hek293; also: in other assays of this panel Not Active means under 50% inhibition at 10 µM
Adenosine receptor A2a = Adenosine receptor A2a (Homo sapiens, UniProt P29274); test: DRUGMATRIX: Adenosine A2A radioligand binding (ligand: […]); format: cell membranes, HEK293, Membrane; conditions: hek293; Not Active = under 50% inhibition at 10 µM
[3] = biological target: T1, Angiotensin-converting enzyme (Oryctolagus cuniculus, UniProt P12822); format: tissue-based, Lung;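 also: enzymatic inhibition of angiotensin-converting enzyme measured with FAPGG as the substrate; in other assays of this panel Not Active means under 50% inhibition at 10 µM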
T1 sequence (P12822 whole entry): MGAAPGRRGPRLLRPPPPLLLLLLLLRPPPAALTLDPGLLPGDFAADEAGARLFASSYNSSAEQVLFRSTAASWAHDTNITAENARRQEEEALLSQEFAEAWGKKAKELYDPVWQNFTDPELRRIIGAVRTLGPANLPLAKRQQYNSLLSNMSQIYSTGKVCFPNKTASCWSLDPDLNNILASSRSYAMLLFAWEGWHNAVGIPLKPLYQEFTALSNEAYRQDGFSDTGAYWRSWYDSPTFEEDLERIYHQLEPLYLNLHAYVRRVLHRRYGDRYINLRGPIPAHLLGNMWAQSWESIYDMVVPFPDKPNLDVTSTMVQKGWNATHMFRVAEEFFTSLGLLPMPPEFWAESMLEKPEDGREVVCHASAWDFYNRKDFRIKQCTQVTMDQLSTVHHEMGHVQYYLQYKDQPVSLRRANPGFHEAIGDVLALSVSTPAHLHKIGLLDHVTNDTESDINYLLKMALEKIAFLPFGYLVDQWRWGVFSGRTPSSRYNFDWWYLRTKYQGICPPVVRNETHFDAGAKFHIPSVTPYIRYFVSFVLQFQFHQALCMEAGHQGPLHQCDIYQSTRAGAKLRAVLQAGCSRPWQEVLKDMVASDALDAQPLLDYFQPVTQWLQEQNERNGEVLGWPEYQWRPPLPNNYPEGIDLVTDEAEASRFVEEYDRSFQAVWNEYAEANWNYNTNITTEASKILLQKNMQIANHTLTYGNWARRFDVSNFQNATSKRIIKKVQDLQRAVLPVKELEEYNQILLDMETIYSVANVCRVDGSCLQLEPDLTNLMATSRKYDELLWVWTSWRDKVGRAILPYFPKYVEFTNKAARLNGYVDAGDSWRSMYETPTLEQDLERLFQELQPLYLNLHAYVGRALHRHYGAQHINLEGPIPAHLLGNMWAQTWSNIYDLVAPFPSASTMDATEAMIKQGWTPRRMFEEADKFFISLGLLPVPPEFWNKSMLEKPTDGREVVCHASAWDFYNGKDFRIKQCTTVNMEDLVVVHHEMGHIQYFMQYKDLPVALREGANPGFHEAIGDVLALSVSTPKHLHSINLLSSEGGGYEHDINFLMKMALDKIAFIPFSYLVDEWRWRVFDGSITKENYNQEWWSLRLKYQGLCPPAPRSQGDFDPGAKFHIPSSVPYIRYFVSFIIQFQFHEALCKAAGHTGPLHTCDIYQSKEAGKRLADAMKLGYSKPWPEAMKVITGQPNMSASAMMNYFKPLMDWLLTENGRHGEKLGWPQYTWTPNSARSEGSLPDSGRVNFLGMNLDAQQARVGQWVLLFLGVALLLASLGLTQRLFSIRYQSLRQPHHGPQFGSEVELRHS

Histamine H2 receptor = Histamine H2 receptor (Homo sapiens, UniProt P25021); format: cell membranes, CHO-K1, Membrane; conditions: cho-k1; also: in other assays of this panel Not Active means under 50% inhibition at 10 µM
[4] = DRUGMATRIX: Calcium Channel Type L, Phenylalkylamine radioligand binding (ligand: [3H] (-)-Desmethoxyverapamil (D-888)); format: cell membranes, Rattus norvegicus, Wistar, Brain, Membrane; conditions: Not Active = under 50% inhibition at 10 µM

Histamine H2 receptor, sequence (P25021 whole entry): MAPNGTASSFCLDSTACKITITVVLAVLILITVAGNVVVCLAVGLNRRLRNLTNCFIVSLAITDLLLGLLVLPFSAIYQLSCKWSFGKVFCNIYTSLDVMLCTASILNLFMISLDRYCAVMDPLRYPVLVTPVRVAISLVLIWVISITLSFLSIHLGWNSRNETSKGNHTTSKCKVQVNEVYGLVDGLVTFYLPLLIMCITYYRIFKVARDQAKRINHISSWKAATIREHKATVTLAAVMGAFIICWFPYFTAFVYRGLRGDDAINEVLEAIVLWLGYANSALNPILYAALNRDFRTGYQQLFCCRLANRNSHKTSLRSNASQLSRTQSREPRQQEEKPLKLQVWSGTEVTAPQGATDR
Adenosine receptor A2a, sequence (P29274 whole entry): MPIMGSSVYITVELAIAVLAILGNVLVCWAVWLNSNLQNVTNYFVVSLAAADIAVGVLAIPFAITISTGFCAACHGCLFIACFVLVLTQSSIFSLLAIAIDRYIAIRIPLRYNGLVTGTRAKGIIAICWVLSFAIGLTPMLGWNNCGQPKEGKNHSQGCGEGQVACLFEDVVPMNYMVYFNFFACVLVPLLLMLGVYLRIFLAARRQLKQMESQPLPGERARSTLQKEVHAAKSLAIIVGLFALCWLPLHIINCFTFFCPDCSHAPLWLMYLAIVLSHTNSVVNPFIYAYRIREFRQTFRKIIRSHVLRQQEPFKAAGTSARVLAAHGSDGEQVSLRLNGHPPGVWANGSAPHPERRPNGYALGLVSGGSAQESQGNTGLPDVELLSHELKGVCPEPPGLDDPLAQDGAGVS
Vasopressin V1a receptor, sequence (P37288 whole entry): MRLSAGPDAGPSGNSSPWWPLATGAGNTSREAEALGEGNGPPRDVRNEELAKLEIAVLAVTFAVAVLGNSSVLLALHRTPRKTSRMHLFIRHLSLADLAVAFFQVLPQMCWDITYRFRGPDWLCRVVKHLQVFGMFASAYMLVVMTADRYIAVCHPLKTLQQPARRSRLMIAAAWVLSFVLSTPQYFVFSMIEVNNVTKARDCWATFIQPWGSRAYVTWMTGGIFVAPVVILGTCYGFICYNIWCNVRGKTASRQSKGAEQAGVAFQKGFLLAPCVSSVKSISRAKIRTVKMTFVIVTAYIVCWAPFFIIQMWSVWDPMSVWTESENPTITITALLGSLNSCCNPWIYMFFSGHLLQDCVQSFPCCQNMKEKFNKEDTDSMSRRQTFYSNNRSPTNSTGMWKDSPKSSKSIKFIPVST
5-hydroxytryptamine receptor 6, sequence (P50406 whole entry): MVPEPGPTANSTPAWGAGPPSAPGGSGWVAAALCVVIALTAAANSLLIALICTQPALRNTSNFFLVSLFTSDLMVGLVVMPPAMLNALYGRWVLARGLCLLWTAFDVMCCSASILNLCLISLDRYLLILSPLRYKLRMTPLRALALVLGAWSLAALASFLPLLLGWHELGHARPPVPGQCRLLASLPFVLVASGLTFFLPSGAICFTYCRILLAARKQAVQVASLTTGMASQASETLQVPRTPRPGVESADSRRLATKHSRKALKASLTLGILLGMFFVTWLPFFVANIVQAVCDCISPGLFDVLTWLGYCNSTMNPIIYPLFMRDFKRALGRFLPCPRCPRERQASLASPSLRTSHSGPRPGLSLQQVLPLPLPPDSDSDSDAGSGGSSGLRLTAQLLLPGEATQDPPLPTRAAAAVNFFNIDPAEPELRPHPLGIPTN

Cc1cc(=O)n(-c2ccccc2)n1C [ANTIPYRINE]
Not Active: IC50 [1] | IC50 [2] | IC50 (Vasopressin V1a receptor) | IC50 (Adenosine receptor A2a) | IC50 [3] | IC50 (Histamine H2 receptor) | IC50 [4] | Ki [4]

CC1(C)O[C@@H]2C[C@H]3[C@@H]4C[C@H](F)C5=CC(=O)CC[C@]5(C)[C@H]4[C@@H](O)C[C@]3(C)[C@]2(C(=O)CO)O1 [FLURANDRENOLIDE]
Not Active: IC50 [1] | IC50 [2] | IC50 (Vasopressin V1a receptor) | IC50 (Adenosine receptor A2a) | IC50 [3] | IC50 (Histamine H2 receptor) | IC50 [4] | Ki [4]

CC(=O)OCC(=O)[C@@]1(O)CC[C@H]2[C@@H]3CCC4=CC(=O)CC[C@]4(C)[C@H]3C(=O)C[C@@]21C [CORTISONE ACETATE]
Not Active: IC50 [1] | IC50 [2] | IC50 (Vasopressin V1a receptor) | IC50 (Adenosine receptor A2a) | IC50 [3] | IC50 (Histamine H2 receptor) | IC50 [4] | Ki [4]

CCN1CC(CCN2CCOCC2)C(c2ccccc2)(c2ccccc2)C1=O (configuration not stated) [DOXAPRAM]
Not Active: IC50 [1] | IC50 [2] | IC50 (Vasopressin V1a receptor) | IC50 (Adenosine receptor A2a) | IC50 [3] | IC50 (Histamine H2 receptor) | IC50 [4] | Ki [4]

NC(=O)c1cnccn1 [PYRAZINAMIDE]
Not Active: IC50 [1] | IC50 [2] | IC50 (Vasopressin V1a receptor) | IC50 (Adenosine receptor A2a) | IC50 [3] | IC50 (Histamine H2 receptor) | IC50 [4] | Ki [4]

O=C1CC[C@H](N2C(=O)c3ccccc3C2=O)C(=O)N1
Not Active: IC50 [1] | IC50 [2] | IC50 (Vasopressin V1a receptor) | IC50 (Adenosine receptor A2a) | IC50 [3] | IC50 (Histamine H2 receptor) | IC50 [4] | Ki [4]

ClC(Cl)Cl [CHLOROFORM]
Not Active: IC50 [1] | IC50 [2] | IC50 (Vasopressin V1a receptor) | IC50 (Adenosine receptor A2a) | IC50 [3] | IC50 (Histamine H2 receptor) | IC50 [4] | Ki [4]

CCc1c2c(nc3ccc(OC(=O)N4CCC(N5CCCCC5)CC4)cc13)-c1cc3c(c(=O)n1C2)COC(=O)[C@]3(O)CC [IRINOTECAN]
Not Active: IC50 [1] | IC50 [2] | IC50 (Vasopressin V1a receptor) | IC50 (Adenosine receptor A2a) | IC50 [3] | IC50 (Histamine H2 receptor) | IC50 [4] | Ki [4]

CCCN(CCC)C(=O)C(CCC(=O)O)NC(=O)c1ccccc1 (configuration not stated) [PROGLUMIDE]
Not Active: IC50 [1] | IC50 [2] | IC50 (Vasopressin V1a receptor) | IC50 (Adenosine receptor A2a) | IC50 [3] | IC50 (Histamine H2 receptor) | IC50 [4] | Ki [4]

CCCC(CCC)C(=O)O [VALPROIC ACID]
Not Active: IC50 [1] | IC50 [2] | IC50 (Vasopressin V1a receptor) | IC50 (Adenosine receptor A2a) | IC50 [3] | IC50 (Histamine H2 receptor) | IC50 [4] | Ki [4]

Cc1ccccc1C(=O)N1CCC(Cc2ccccc2)CC1
Not Active: IC50 [1] | IC50 [2] | IC50 (Vasopressin V1a receptor) | IC50 (Adenosine receptor A2a) | IC50 [3] | IC50 (Histamine H2 receptor) | IC50 [4] | Ki [4]

CCCC(=O)Nc1ccc(OCC(O)CNC(C)C)c(C(C)=O)c1 (configuration not stated) [ACEBUTOLOL]
Not Active: IC50 [1] | IC50 [2] | IC50 (Vasopressin V1a receptor) | IC50 (Adenosine receptor A2a) | IC50 [3] | IC50 (Histamine H2 receptor) | IC50 [4] | Ki [4]

OC(CCN1CCCCC1)(c1ccccc1)C1CCCCC1 (configuration not stated) [TRIHEXYPHENIDYL]
Not Active: IC50 [1] | IC50 [2] | IC50 (Vasopressin V1a receptor) | IC50 (Adenosine receptor A2a) | IC50 [3] | IC50 (Histamine H2 receptor) | IC50 [4] | Ki [4]

Cc1ccc(S(=O)(=O)NC(=O)NN2CC3CCCC3C2)cc1 (configuration not stated) [GLICLAZIDE]
Not Active: IC50 [1] | IC50 [2] | IC50 (Vasopressin V1a receptor) | IC50 (Adenosine receptor A2a) | IC50 [3] | IC50 (Histamine H2 receptor) | IC50 [4] | Ki [4]
